Laboratory results reported in patent US20260262643A1, “HERBICIDAL BENZOXAZINES” (FMC CORPORATION, priority 2022, published 2026).

Legend:
ducksalad = experiment: Test D flooded paddy test; type: in vivo, Heteranthera limosa; details: 250 g ai/ha, applied to paddy water, visual rating after 13 to 14 days, scale 0 to 100 (0 no effect, 100 complete control)
In short: (§1)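 Plants grown to the 2-leaf stage; pots flooded to 3 cm above soil at treatment and held at that depth throughout. Test compounds applied directly to the paddy water. After 13 to 14 days in a greenhouse, response was rated visually versus controls on a 0 (no effect) to 100 (complete control) scale.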

ryegrass, Italian [1] = experiment: Test C postemergence; type: in vivo, Lolium multiflorum; details: 125 g ai/ha, postemergence, 10 days; 0 to 100 scale, 0 no effect, 100 complete control
In short: (§2)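 Test material, in non-phytotoxic solvent with surfactant, was sprayed on the soil directly after seeding (preemergence) or on young plants of 2–10 cm with one to two leaves (postemergence). Greenhouse, 10 days; 0–100 visual control scale.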

barnyardgrass [2] = experiment: Test C postemergence; type: in vivo, Echinochloa crusgalli; details: 10 days
In short: as §2

galium = experiment: Test C postemergence; type: in vivo, Galium aparine; details: 10 days
In short: as §2

barnyardgrass [3] = experiment: Test D flooded paddy test; type: in vivo, Echinochloa crus-galli; details: 250 g ai/ha, applied to paddy water, visual rating after 13 to 14 days, scale 0 to 100 (0 no effect, 100 complete control)
In short: as §1

rice = experiment: Test D flooded paddy test; type: in vivo, Oryza sativa; details: 250 g ai/ha, applied to paddy water, visual rating after 13 to 14 days, scale 0 to 100 (0 no effect, 100 complete control)
In short: as §1

kochia [4] = experiment: Test C preemergence; type: in vivo, Bassia scoparia; details: preemergence, 0 to 100 scale (0 no effect, 100 complete control)
In short: as §2

ragweed [5] = experiment: Test C postemergence; type: in vivo, Ambrosia artemisiifolia; details: 125 g ai/ha, postemergence, 10 days; 0 to 100 scale, 0 no effect, 100 complete control
In short: as §2

oat, wild [6] = experiment: Test C postemergence; type: in vivo, Avena fatua; details: 125 g ai/ha, postemergence, 10 days; 0 to 100 scale, 0 no effect, 100 complete control
In short: as §2

corn [7] = experiment: Test C postemergence; type: in vivo, Zea mays; details: 10 days
In short: as §2

blackgrass [8] = experiment: Test C preemergence; type: in vivo, Alopecurus myosuroides; details: 0 to 100 scale (0 no effect, 100 complete control); for Plant response rating, Blackgrass: Preemergence, 500 g ai/ha, visual rating after 10 days; for Blackgrass plant response rating: Test C, preemergence, 125 g ai/ha
In short: as §2

pigweed, palmer [9] = experiment: Test C preemergence; type: in vivo, Amaranthus palmeri; details: preemergence, 0 to 100 scale (0 no effect, 100 complete control)
In short: as §2

wheat [10] = experiment: Test C preemergence; type: in vivo, Triticum aestivum; details: preemergence, 0 to 100 scale (0 no effect, 100 complete control)
In short: as §2

green foxtail [11] = experiment: Test C preemergence; type: in vivo, Setaria viridis; details: preemergence, 0 to 100 scale (0 no effect, 100 complete control)
In short: as §2

kochia [12] = experiment: Test C postemergence; type: in vivo, Bassia scoparia; details: 125 g ai/ha, postemergence, 10 days; 0 to 100 scale, 0 no effect, 100 complete control
In short: as §2

green foxtail [13] = experiment: Test C postemergence; type: in vivo, Setaria viridis; details: 10 days
In short: as §2

pigweed, palmer [14] = experiment: Test C postemergence; type: in vivo, Amaranthus palmeri; details: 125 g ai/ha, postemergence, 10 days; 0 to 100 scale, 0 no effect, 100 complete control
In short: as §2

horseweed = experiment: Test C postemergence; type: in vivo, Erigeron canadensis; details: 10 days
In short: as §2

oat, wild [15] = experiment: Test C preemergence; type: in vivo, Avena fatua; details: preemergence, 0 to 100 scale (0 no effect, 100 complete control)
In short: as §2

soybean [16] = experiment: Test C preemergence; type: in vivo, Glycine max; details: preemergence, 0 to 100 scale (0 no effect, 100 complete control)
In short: as §2

corn [17] = experiment: Test C preemergence; type: in vivo, Zea mays; details: preemergence, 0 to 100 scale (0 no effect, 100 complete control)
In short: as §2

ryegrass, Italian [18] = experiment: Test C preemergence; type: in vivo, Lolium multiflorum; details: preemergence, 0 to 100 scale (0 no effect, 100 complete control)
In short: as §2

soybean [19] = experiment: Test C postemergence; type: in vivo, Glycine max; details: 125 g ai/ha, postemergence, 10 days; 0 to 100 scale, 0 no effect, 100 complete control
In short: as §2

sedge, umbrella = experiment: Test D flooded paddy test; type: in vivo, Cyperus difformis; details: 250 g ai/ha, applied to paddy water, visual rating after 13 to 14 days, scale 0 to 100 (0 no effect, 100 complete control)
In short: as §1

wheat [20] = experiment: Test C postemergence; type: in vivo, Triticum aestivum; details: 125 g ai/ha, postemergence, 10 days; 0 to 100 scale, 0 no effect, 100 complete control
In short: as §2

ragweed [21] = experiment: Test C preemergence; type: in vivo, Ambrosia artemisiifolia; details: preemergence, 0 to 100 scale (0 no effect, 100 complete control)
In short: as §2

blackgrass [22] = experiment: Test C postemergence; type: in vivo, Alopecurus myosuroides; details: 10 days
In short: as §2

barnyardgrass [23] = experiment: Test C preemergence; type: in vivo, Echinochloa crusgalli; details: 0 to 100 scale (0 no effect, 100 complete control); for Plant response rating, Barnyardgrass: Preemergence, 500 g ai/ha, visual rating after 10 days; for Barnyardgrass plant response rating: Test C, preemergence, 125 g ai/ha
In short: as §2

[24] = 125 g ai/ha, postemergence, 0 to 100 scale, 0 no effect, 100 complete control
[25] = Postemergence, 500 g ai/ha, visual 0 to 100 scale (0 no effect, 100 complete control)

## Cc1ccc(-n2cnc(CC3CC3)n2)cc1C(=O)N1C[C@H](C)Oc2c(Cl)cccc21 [Compound 273]
ducksalad
  Plant response rating, Ducksalad (Flood): 15
ryegrass, Italian [1]
  Plant response rating, Ryegrass, Italian: 0
Barnyardgrass [2]; [24]
  Plant response rating, Barnyardgrass: 30
Barnyardgrass [2]; [25]
  Plant response rating, Barnyardgrass: 70
galium; [24]
  Plant response rating, Galium: 70
galium; [25]
  Plant response rating, Galium: 100
Barnyardgrass [3]
  Plant response rating, Barnyardgrass (Flood): 0
rice
  Plant response rating, Rice (Flood): 0
Kochia [4]; 500 g ai/ha
  Kochia plant response rating: 90
Kochia [4]; Test C, 125 g ai/ha
  Kochia plant response rating: 60
Ragweed [5]
  Plant response rating, Ragweed: 40
oat, wild [6]
  Plant response rating, Oat, Wild: 0
Corn [7]; [24]
  Plant response rating, Corn: 10
Corn [7]; [25]
  Plant response rating, Corn: 30
Blackgrass [8]
  Plant response rating, Blackgrass: 50
  Blackgrass plant response rating: 0
pigweed, palmer [9]; 500 g ai/ha
  Pigweed, Palmer plant response rating: 100
pigweed, palmer [9]; Test C, 125 g ai/ha
  Pigweed, Palmer plant response rating: 90
Wheat [10]; 500 g ai/ha
  Wheat plant response rating: 40
Wheat [10]; Test C, 125 g ai/ha
  Wheat plant response rating: 0
Green foxtail [11]; 500 g ai/ha
  Foxtail, Green plant response rating: 100
Green foxtail [11]; Test C, 125 g ai/ha
  Foxtail, Green plant response rating: 100
Kochia [12]
  Plant response rating, Kochia: 70
Green foxtail [13]; [24]
  Plant response rating, Foxtail, Green: 40
Green foxtail [13]; [25]
  Plant response rating, Foxtail, Green: 90
pigweed, palmer [14]
  Plant response rating, Pigweed, Palmer: 90
horseweed; [24]
  Plant response rating, Horseweed: 0
horseweed; [25]
  Plant response rating, Horseweed: 40
oat, wild [15]; 500 g ai/ha
  Oat, Wild plant response rating: 80
oat, wild [15]; Test C, 125 g ai/ha
  Oat, Wild plant response rating: 20
Soybean [16]; 500 g ai/ha
  Soybean plant response rating: 70
Soybean [16]; Test C, 125 g ai/ha
  Soybean plant response rating: 10
Corn [17]; 500 g ai/ha
  Corn plant response rating: 10
Corn [17]; Test C, 125 g ai/ha
  Corn plant response rating: 0
ryegrass, Italian [18]; 500 g ai/ha
  Ryegrass, Italian plant response rating: 90
ryegrass, Italian [18]; Test C, 125 g ai/ha
  Ryegrass, Italian plant response rating: 70
Soybean [19]
  Plant response rating, Soybean: 100
sedge, umbrella
  Plant response rating, Sedge, Umbrella (Flood): 40
Wheat [20]
  Plant response rating, Wheat: 10
Ragweed [21]; 500 g ai/ha
  Ragweed plant response rating: 0
Ragweed [21]; Test C, 125 g ai/ha
  Ragweed plant response rating: 0
Blackgrass [22]; [24]
  Plant response rating, Blackgrass: 10
Blackgrass [22]; [25]
  Plant response rating, Blackgrass: 80
Barnyardgrass [23]
  Plant response rating, Barnyardgrass: 100
  Barnyardgrass plant response rating: 40

## Cc1ccc(-n2cnc(C3(C)COC3)n2)cc1C(=O)N1C[C@H](C)Oc2c(Cl)cccc21 [Compound 275]
ducksalad
  Plant response rating, Ducksalad (Flood): 85
ryegrass, Italian [1]
  Plant response rating, Ryegrass, Italian: 90
Barnyardgrass [2]; [24]
  Plant response rating, Barnyardgrass: 50
Barnyardgrass [2]; [25]
  Plant response rating, Barnyardgrass: 90
galium; [24]
  Plant response rating, Galium: 100
galium; [25]
  Plant response rating, Galium: 100
Barnyardgrass [3]
  Plant response rating, Barnyardgrass (Flood): 35
rice
  Plant response rating, Rice (Flood): 10
Kochia [4]; 500 g ai/ha
  Kochia plant response rating: 100
Kochia [4]; Test C, 125 g ai/ha
  Kochia plant response rating: 80
Ragweed [5]
  Plant response rating, Ragweed: 80
oat, wild [6]
  Plant response rating, Oat, Wild: 60
Corn [7]; [24]
  Plant response rating, Corn: 10
Corn [7]; [25]
  Plant response rating, Corn: 90
Blackgrass [8]
  Plant response rating, Blackgrass: 90
  Blackgrass plant response rating: 50
pigweed, palmer [9]; 500 g ai/ha
  Pigweed, Palmer plant response rating: 100
pigweed, palmer [9]; Test C, 125 g ai/ha
  Pigweed, Palmer plant response rating: 100
Wheat [10]; 500 g ai/ha
  Wheat plant response rating: 70
Wheat [10]; Test C, 125 g ai/ha
  Wheat plant response rating: 30
Green foxtail [11]; 500 g ai/ha
  Foxtail, Green plant response rating: 100
Green foxtail [11]; Test C, 125 g ai/ha
  Foxtail, Green plant response rating: 100
Kochia [12]
  Plant response rating, Kochia: 80
Green foxtail [13]; [24]
  Plant response rating, Foxtail, Green: 70
Green foxtail [13]; [25]
  Plant response rating, Foxtail, Green: 90
pigweed, palmer [14]
  Plant response rating, Pigweed, Palmer: 80
horseweed; [24]
  Plant response rating, Horseweed: 60
horseweed; [25]
  Plant response rating, Horseweed: 90
oat, wild [15]; 500 g ai/ha
  Oat, Wild plant response rating: 90
oat, wild [15]; Test C, 125 g ai/ha
  Oat, Wild plant response rating: 50
Soybean [16]; 500 g ai/ha
  Soybean plant response rating: 100
Soybean [16]; Test C, 125 g ai/ha
  Soybean plant response rating: 80
Corn [17]; 500 g ai/ha
  Corn plant response rating: 60
Corn [17]; Test C, 125 g ai/ha
  Corn plant response rating: 30
ryegrass, Italian [18]; 500 g ai/ha
  Ryegrass, Italian plant response rating: 100
ryegrass, Italian [18]; Test C, 125 g ai/ha
  Ryegrass, Italian plant response rating: 80
Soybean [19]
  Plant response rating, Soybean: 100
sedge, umbrella
  Plant response rating, Sedge, Umbrella (Flood): 95
Wheat [20]
  Plant response rating, Wheat: 40
Ragweed [21]; 500 g ai/ha
  Ragweed plant response rating: 80
Ragweed [21]; Test C, 125 g ai/ha
  Ragweed plant response rating: 60
Blackgrass [22]; [24]
  Plant response rating, Blackgrass: 80
Blackgrass [22]; [25]
  Plant response rating, Blackgrass: 90
Barnyardgrass [23]
  Plant response rating, Barnyardgrass: 100
  Barnyardgrass plant response rating: 100
